Data as given in ChEMBL document CHEMBL3046810, “Total synthesis of cis-solamin and its inhibitory action with bovine heart mitochondrial complex I” (Tetrahedron, 2004).

Target: NADH-ubiquinone oxidoreductase chain 1 (Bos taurus, UniProt P03887)
Assay: Inhibition of Bos taurus (bovine) mitochodrial complex 1 isolated from heart submitochondrial particle by NADH oxidase assay

Chain of NADH-ubiquinone oxidoreductase chain 1 (P03887 whole entry): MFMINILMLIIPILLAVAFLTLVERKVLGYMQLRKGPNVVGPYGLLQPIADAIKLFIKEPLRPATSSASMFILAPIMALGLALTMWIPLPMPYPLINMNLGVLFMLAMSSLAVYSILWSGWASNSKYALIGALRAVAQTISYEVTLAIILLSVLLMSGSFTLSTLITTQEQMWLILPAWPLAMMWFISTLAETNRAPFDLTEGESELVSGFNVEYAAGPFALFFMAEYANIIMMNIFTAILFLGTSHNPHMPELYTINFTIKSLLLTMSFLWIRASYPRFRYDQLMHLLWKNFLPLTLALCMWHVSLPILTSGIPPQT

Row | SMILES | IC50 [nM]
1 | CCCCCCCCCCCC[C@H](O)[C@@H]1CC[C@H]([C@H](O)CCCCCCCCCCCCC2=C[C@H](C)OC2=O)O1 (stereo in doubt; 1a) [CIS-SOLAMIN] | 2.2
2 | CCCCCCCCCCCC[C@H](O)[C@@H]1CC[C@H]([C@H](O)CCCCCCCCCCCCC2=C[C@H](C)OC2=O)O1 (stereo in doubt; 1b) [CIS-SOLAMIN] | 2.1
3 | CCCCCCCCCCCC[C@@H](O)[C@H]1CC[C@H]([C@H](O)CCCC[C@@H](O)CCCCCCCC2=C[C@H](C)OC2=O)O1 [(10S)-COROSSOLINE] | 2
4 | CCCCCCCCCCCC[C@H](O)[C@H]1CC[C@H]([C@H](O)CCCCCCCCCCCCCCC2=C[C@H](C)OC2=O)O1 [(17R,18R,21R,22S)-reticulation-1] | 16
5 | CCCCCCCCCCCC[C@@H](O)[C@H]1CC[C@H]([C@@H](O)CCCCCCCCCCCCCCC2=C[C@H](C)OC2=O)O1 [(17S, 18S, 21S, 22R)-reticulation-1] | 17
6 | CCCCCCCCCC[C@H](O)[C@H]1CC[C@H]([C@H]2CC[C@H]([C@H](O)CCCCCCCCCC[C@@H](O)CC3=C[C@H](C)OC3=O)O2)O1 [BULLATACIN] | 0.8
7 | CCCCCCCCCCCC[C@@H](O)[C@H]1CC[C@H]([C@H](O)CCCC[C@H](O)CCCCCCCC2=C[C@H](C)OC2=O)O1 [COROSSOLINE] | 1.5
